Test results from the supplement of paper PMC4862054.

How the values were obtained:
Experiment in all cases: normalised response (% of control), CellTiter-Glo; higher = more viable cells (100 = DMSO, 0 = benzethonium chloride kill control)
Conditions in all cases: incubation time: 72 h
MDA-MB-436 = tested on: MDA-MB-436
Procedure, shortened: (§1)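 In 384-well plates holding compound at 5 concentrations in 10-fold steps over a 10,000-fold range specific to each compound, breast cancer cell lines were seeded as 20 µl suspension and incubated 72 h. CellTox Green fluorescence was measured at 485/520 nm, after which CellTiter-Glo luminescence was measured following 10 min at room temperature. Plate signals were normalised to 0.1 % DMSO (100) and a positive kill control (0), and each value is the normalised signal at a single concentration.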

BT-549 = tested on: BT-549
Procedure, shortened: as §1

HCC1937 = tested on: HCC1937
Procedure, shortened: as §1

MFM-223 = tested on: MFM-223
Procedure, shortened: as §1

SK-BR-3 = tested on: SK-BR-3
Procedure, shortened: as §1

Hs578T = tested on: Hs578T
Procedure, shortened: as §1

CAL-85-1 = tested on: CAL-85-1
Procedure, shortened: as §1

HCC1599 = tested on: HCC1599
Procedure, shortened: as §1

MDA-MB-468 = tested on: MDA-MB-468
Procedure, shortened: as §1

CAL-51 = tested on: CAL-51
Procedure, shortened: as §1

HCC1143 = tested on: HCC1143
Procedure, shortened: as §1

BT-474 = tested on: BT-474
Procedure, shortened: as §1

MCF-10A = tested on: MCF-10A
Procedure, shortened: as §1

MDA-MB-453 = tested on: MDA-MB-453
Procedure, shortened: as §1

DU-4475 = tested on: DU-4475
Procedure, shortened: as §1

HDQ-P1 = tested on: HDQ-P1
Procedure, shortened: as §1

MDA-MB-231 = tested on: MDA-MB-231
Procedure, shortened: as §1

CAL-148 = tested on: CAL-148
Procedure, shortened: as §1

CAL-120 = tested on: CAL-120
Procedure, shortened: as §1

Row | SMILES | normalised response (MDA-MB-436) [%] | normalised response (BT-549) [%] | normalised response (HCC1937) [%] | normalised response (MFM-223) [%] | normalised response (SK-BR-3) [%] | normalised response (Hs578T) [%] | normalised response (CAL-85-1) [%] | normalised response (HCC1599) [%] | normalised response (MDA-MB-468) [%] | normalised response (CAL-51) [%] | normalised response (HCC1143) [%] | normalised response (BT-474) [%] | normalised response (MCF-10A) [%] | normalised response (MDA-MB-453) [%] | normalised response (DU-4475) [%] | normalised response (HDQ-P1) [%] | normalised response (MDA-MB-231) [%] | normalised response (CAL-148) [%] | normalised response (CAL-120) [%]
1 | CCn1c(-c2nonc2N)nc2cnc(Oc3cccc(NC(=O)c4ccc(OCCN5CCOCC5)cc4)c3)cc21 (1 nM) | 104 | 108 | 104 | 96.8 | 102 | 99.5 | 101 | 103 | 95.6 | 114 | 103 | 95.1 | 102 | 101 | 94.3 | 104 | 102 | 98.6 | 41.8
2 | CCn1c(-c2nonc2N)nc2cnc(Oc3cccc(NC(=O)c4ccc(OCCN5CCOCC5)cc4)c3)cc21 (10 nM) | 95 | 97.3 | 104 | 106 | 117 | 104 | 102 | 104 | 94.3 | 121 | 101 | 93.3 | 89 | 91.3 | 94.2 | 103 | 99.8 | 94.9 | 92.4
3 | N#Cc1ccc(COC[C@H]2O[C@@H](n3c(NCc4ccc(Cl)c(Cl)c4)nc4c(N)ncnc43)[C@H](O)[C@@H]2O)cc1 (10 nM) | 108 | 103 | 98.7 | 113 | 132 | 101 | 98.1 | 92.3 | 101 | 76.3 | 107 | 107 | 101 | 106 | 106 | 97.5 | 106 | 115 | 97.2
4 | COc1cc(O)c2c(c1)/C=C/C[C@H](O)[C@H](O)C(=O)/C=C\C[C@H](C)OC2=O [(5Z)-7-Oxozeaenol] (1 nM) | 98 | 109 | 98.7 | 108 | 105 | 99.9 | 95.2 | 91.8 | 98 | 93.9 | 106 | 97.9 | 109 | 106 | 96.6 | 105 | 103 | 104 | 99.8
5 | COc1cc(O)c2c(c1)/C=C/C[C@H](O)[C@H](O)C(=O)/C=C\C[C@H](C)OC2=O [(5Z)-7-Oxozeaenol] (10 nM) | 99 | 103 | 106 | 107 | 107 | 104 | 96.4 | 121 | 100 | 107 | 108 | 106 | 112 | 93 | 102 | 96.9 | 109 | 106 | 94.9
6 | COc1cc(OC2CCN(C)CC2)ccc1Nc1ncc2c(n1)n(C1CCCC1)c(=O)n2C [AZ 3146] (10 nM) | 98.2 | 96.3 | 96.1 | 102 | 95.4 | 93 | 102 | 95.9 | 111 | 132 | 100 | 107 | 95.5 | 97.8 | 97 | 95.9 | 104 | 99.7 | 103
7 | CNC(=O)c1cccc(-c2ccc3c(N4CCOC[C@@H]4C)nc(N4CCOC[C@@H]4C)nc3n2)c1 [AZD2014] (1 nM) | 89.7 | 102 | 101 | 106 | 115 | 101 | 95 | 92 | 103 | 125 | 104 | 97.5 | 114 | 105 | 99.4 | 98 | 108 | 111 | 98.4
8 | CNC(=O)c1cccc(-c2ccc3c(N4CCOC[C@@H]4C)nc(N4CCOC[C@@H]4C)nc3n2)c1 [AZD2014] (10 nM) | 98.5 | 96.8 | 101 | 106 | 99 | 104 | 97.6 | 115 | 104 | 105 | 99.8 | 99.5 | 111 | 101 | 104 | 98.8 | 97.7 | 106 | 93.5
9 | CN(C)c1nc(N(C)C)nc(N(C)C)n1 [Altretamine] (10 nM) | 96.5 | 100 | 99.3 | 109 | 113 | 110 | 101 | 103 | 104 | 101 | 105 | 101 | 109 | 115 | 100 | 98.9 | 101 | 109 | 97.9
10 | O=C(/C=C/c1cccc(S(=O)(=O)Nc2ccccc2)c1)NO [Belinostat] (10 nM) | 91 | 101 | 94.8 | 88.5 | 68.9 | 94.3 | 93.8 | 96.5 | 105 | 80.2 | 99.2 | 98.2 | 96 | 97.1 | 97.2 | 88.5 | 98.5 | 85.7 | 96.9
